The record followed here is ChEMBL document CHEMBL5729289, “JAK inhibitor and use thereof” (2022).

The target in test [1] is T1, Tyrosine-protein kinase JAK3 (Homo sapiens, UniProt P52333).
T1 sequence (P52333 whole entry): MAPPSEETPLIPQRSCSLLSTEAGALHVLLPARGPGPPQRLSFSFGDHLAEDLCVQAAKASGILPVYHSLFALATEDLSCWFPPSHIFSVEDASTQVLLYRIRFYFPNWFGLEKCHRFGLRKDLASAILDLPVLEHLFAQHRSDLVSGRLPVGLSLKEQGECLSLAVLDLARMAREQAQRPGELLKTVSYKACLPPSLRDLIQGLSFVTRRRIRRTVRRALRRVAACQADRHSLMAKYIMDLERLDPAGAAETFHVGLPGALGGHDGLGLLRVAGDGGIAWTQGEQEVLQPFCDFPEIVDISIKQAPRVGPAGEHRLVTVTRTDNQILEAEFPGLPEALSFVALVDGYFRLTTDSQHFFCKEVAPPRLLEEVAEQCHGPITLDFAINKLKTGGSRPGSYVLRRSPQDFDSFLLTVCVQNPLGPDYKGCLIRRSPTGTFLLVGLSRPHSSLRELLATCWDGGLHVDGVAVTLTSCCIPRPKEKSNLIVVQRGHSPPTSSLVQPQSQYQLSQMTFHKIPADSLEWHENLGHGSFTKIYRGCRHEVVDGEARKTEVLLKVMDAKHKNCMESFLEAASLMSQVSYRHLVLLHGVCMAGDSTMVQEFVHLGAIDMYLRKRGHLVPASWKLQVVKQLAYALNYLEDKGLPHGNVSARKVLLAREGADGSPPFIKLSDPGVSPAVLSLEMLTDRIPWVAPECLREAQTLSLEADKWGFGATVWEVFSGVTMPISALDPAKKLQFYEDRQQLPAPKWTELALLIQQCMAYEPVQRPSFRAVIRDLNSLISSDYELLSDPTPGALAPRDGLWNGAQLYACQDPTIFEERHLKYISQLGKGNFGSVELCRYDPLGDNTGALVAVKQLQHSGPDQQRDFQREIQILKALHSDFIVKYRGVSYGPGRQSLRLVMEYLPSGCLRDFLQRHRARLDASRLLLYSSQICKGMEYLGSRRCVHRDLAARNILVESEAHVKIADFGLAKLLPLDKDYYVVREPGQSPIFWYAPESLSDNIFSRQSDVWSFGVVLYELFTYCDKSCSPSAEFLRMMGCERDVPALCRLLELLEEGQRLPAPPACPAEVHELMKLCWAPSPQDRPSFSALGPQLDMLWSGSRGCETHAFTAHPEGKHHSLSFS
In words: In Vitro Activity Assay: JAK3 (h) was incubated with 8 mM MOPS pH 7.0, 0.2 mM EDTA, 500 μM […], 10 mM magnesium acetate and [γ-33P]-ATP (activity and concentration were formulated as needed). Mg/ATP mixture was added to initiate the reaction. After incubating at room temperature for 40 minutes, the reaction mixture was added with 0.5% phosphoric acid to stop the reaction. Then 10 μL the reaction solution was spotted on a P30 filter pad and washed with 0.425% phosphoric acid three times and methanol once over 4 minutes, dried, and counted scintillation.

In test [2] the target is Tyrosine-protein kinase JAK2 (Homo sapiens, UniProt O60674). In words: In Vitro Activity Assay: JAK2 (h) and 8 mM MOPS pH 7.0, 0.2 mM EDTA, 100M KTFCGTPEYLAPEVRREPRILSEEEQEMFRDFDYIADWC, 10 mM magnesium acetate and [γ-33P]-ATP (activity and concentration were formulated as needed) were incubated together. Mg/ATP mixture was added to initiate the reaction. After incubating at room temperature for 40 minutes, the reaction mixture was added with 0.5% phosphoric acid to ….

Test [3] addresses Tyrosine-protein kinase JAK1 (Homo sapiens, UniProt P23458). Briefly: In Vitro Activity Assay: JAK1 (h) was incubated with 20 mM Tris/HCl pH 7.5, 0.2 mM EDTA, 500 μM […], 10 mM magnesium acetate and [γ-33P]-ATP (activity and concentration were formulated as needed). Mg/ATP mixture was added to initiate the reaction. After incubating at room temperature for 40 minutes, the reaction mixture was added with 0.5% phosphoric acid to stop the reaction. Then 10 μL reaction solution was spotted on a P30 filter pad and washed with 0.425% phosphoric acid three times and methanol once over 4 minutes, dried, and counted scintillation.

Test [4] addresses Non-receptor tyrosine-protein kinase TYK2 (Homo sapiens, UniProt P29597). In words: In Vitro Activity Assay: TYK2 (h) was incubated with 8 mM MOPS pH 7.0, 0.2 mM EDTA, 250 μM […], 10 mM magnesium acetate and [γ-33P]-ATP (activity and concentration were formulated as needed). Mg/ATP mixture was added to initiate the reaction. After incubating at room temperature for 40 minutes, the reaction mixture was added with 0.5% phosphoric acid to stop the reaction. Then 10 μL reaction was spotted on a P30 filter pad and washed with 0.425% phosphoric acid three times and methanol once over 4 minutes, dried, and counted scintillation.

Tyrosine-protein kinase JAK2, sequence (O60674 whole entry): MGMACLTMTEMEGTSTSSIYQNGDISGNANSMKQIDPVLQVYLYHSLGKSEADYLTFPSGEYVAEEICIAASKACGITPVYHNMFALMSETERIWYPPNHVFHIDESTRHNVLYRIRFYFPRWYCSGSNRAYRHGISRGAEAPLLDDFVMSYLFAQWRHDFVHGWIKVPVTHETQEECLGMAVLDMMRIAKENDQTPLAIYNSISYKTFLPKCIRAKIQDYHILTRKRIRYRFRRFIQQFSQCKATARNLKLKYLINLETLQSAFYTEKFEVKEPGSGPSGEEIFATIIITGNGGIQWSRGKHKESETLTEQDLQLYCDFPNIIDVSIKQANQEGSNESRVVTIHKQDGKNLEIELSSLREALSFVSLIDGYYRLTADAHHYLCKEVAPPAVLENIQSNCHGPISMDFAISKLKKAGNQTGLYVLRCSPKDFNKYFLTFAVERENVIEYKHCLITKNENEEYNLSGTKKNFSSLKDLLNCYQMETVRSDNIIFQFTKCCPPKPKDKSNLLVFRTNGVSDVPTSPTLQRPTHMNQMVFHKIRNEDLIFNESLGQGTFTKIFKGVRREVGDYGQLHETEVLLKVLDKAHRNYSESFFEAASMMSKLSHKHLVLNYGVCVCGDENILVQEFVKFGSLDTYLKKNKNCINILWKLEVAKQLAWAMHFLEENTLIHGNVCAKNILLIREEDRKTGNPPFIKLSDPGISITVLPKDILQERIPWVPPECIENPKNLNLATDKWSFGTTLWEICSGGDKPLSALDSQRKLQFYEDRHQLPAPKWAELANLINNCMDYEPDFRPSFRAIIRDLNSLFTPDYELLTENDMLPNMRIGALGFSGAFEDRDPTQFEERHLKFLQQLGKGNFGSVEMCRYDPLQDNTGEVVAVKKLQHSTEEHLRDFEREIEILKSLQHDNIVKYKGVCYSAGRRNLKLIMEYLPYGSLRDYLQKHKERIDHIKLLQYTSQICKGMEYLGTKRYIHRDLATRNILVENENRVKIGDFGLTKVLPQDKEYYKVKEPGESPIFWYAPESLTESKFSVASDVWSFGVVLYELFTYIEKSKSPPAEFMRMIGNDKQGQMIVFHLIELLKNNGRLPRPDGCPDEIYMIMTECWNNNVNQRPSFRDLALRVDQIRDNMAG
Tyrosine-protein kinase JAK1, sequence (P23458 whole entry): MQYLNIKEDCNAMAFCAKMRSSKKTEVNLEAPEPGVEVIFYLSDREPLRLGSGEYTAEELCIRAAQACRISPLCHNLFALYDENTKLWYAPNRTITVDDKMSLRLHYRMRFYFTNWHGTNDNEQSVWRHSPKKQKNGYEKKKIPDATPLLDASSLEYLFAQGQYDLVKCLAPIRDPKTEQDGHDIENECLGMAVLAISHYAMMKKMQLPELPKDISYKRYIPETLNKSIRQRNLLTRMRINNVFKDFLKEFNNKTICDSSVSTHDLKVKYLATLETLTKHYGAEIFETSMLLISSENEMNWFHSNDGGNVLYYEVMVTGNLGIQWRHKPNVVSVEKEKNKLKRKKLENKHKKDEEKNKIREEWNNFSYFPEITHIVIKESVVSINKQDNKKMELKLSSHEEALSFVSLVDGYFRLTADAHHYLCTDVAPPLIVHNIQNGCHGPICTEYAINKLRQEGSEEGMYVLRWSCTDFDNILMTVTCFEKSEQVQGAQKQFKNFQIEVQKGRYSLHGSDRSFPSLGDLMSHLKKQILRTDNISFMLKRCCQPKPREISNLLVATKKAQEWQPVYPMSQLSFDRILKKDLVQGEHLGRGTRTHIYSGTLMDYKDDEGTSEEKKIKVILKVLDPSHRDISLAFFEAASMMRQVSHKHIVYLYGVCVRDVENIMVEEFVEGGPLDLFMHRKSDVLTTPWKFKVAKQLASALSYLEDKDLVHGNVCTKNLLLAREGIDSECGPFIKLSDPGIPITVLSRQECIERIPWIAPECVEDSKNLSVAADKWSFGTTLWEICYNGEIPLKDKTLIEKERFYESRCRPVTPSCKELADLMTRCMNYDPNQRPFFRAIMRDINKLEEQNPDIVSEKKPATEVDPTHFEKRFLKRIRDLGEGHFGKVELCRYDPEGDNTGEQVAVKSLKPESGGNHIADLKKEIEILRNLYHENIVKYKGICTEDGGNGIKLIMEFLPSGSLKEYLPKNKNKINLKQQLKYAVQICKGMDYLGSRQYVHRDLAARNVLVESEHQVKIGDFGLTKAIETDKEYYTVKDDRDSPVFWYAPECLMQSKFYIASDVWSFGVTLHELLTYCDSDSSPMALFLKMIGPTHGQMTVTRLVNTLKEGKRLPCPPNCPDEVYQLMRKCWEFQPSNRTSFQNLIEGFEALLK
Non-receptor tyrosine-protein kinase TYK2, sequence (P29597 whole entry): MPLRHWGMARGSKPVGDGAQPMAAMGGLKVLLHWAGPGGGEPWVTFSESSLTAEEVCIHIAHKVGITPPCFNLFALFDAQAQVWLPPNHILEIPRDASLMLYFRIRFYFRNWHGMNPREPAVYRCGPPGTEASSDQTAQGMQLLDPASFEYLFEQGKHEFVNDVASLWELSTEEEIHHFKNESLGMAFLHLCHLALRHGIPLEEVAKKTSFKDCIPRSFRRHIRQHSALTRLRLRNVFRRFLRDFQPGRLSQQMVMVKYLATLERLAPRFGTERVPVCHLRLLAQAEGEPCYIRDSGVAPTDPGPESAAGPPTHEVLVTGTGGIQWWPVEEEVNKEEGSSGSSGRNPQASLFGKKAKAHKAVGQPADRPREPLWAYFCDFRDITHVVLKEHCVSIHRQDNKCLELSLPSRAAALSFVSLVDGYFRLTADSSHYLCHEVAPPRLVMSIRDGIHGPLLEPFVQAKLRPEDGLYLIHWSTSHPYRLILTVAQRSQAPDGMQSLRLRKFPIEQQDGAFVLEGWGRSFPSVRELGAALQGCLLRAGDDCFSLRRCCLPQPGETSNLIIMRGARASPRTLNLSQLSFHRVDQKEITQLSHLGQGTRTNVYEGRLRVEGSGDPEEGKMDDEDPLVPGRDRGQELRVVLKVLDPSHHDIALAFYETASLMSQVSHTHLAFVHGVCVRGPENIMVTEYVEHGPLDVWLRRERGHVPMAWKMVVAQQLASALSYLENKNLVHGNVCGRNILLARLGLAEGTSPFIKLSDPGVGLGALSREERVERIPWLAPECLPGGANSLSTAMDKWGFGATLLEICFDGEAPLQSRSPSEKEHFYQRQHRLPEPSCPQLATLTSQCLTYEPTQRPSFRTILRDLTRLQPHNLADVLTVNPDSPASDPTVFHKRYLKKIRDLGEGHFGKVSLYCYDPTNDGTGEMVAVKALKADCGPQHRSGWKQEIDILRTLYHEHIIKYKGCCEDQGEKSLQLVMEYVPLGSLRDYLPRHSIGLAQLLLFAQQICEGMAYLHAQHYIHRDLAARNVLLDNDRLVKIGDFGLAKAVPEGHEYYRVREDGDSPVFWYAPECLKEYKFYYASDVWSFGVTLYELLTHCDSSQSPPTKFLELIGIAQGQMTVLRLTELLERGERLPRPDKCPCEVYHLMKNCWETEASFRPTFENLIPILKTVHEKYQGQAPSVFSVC

For orientation: IC50 means the midpoint of a concentration-inhibition curve. As for `N#CC1(C(=O)NC2CC=C(c3cccc4nc(NC(=O)C5CC5)nn34)CC2)CC1` (configuration not stated), the half-inhibitory concentration (IC50) is over 10000 nM in test [1], 1380 nM in test [2] and 182 nM in test [3].
In the case of `CC1(C(=O)NC2CC=C(c3cccc4nc(NC(=O)C5CC5)nn34)CC2)CC1(F)F` (configuration not stated), the IC50 is over 10000 nM in test [1], 1160 nM in test [2], 729 nM in test [4] and 209 nM in test [3].
